± gives the expanded uncertainty stated by the source.
What was measured:
[1] = 298.15 K; 101.3 kPa; Liquid; Vibrating tube method
[2] = refractive index (Na D-line) (dimensionless); conditions: 298.15 K; 101.3 kPa; Liquid; Standard Abbe refractometry
[3] = relative permittivity at various frequencies (dimensionless); conditions: 298.15 K; 101.3 kPa; Liquid; Frequency=0.01 MHz; Coaxial cylinder capacitor
[4] = refractive index (Na D-line) (dimensionless); xn = mol fraction of the nth substance listed; conditions: 298.15 K, 101.3 kPa, Liquid, Standard Abbe refractometry
[5] = relative permittivity at various frequencies (dimensionless); xn = mol fraction of the nth substance listed; conditions: 298.15 K, 101.3 kPa, Liquid, Frequency=0.01 MHz, Coaxial cylinder capacitor

CC(C)CCO [3-methylbutan-1-ol]
Conditions | mass density [kg/m3] | refractive index | relative permittivity
[1] | 807.16 ± 3.2 | – | –
[2] | – | 1.4048 ± 0.0011 | –
[3] | – | – | 14.96 ± 0.04

CC(C)CCO [3-methylbutan-1-ol] + CC(=O)c1ccccc1
x2 = 0
Conditions | refractive index | relative permittivity
[4] | 1.4048 ± 0.0011 | –
[5] | – | 14.96 ± 0.04

CC(C)CCO [3-methylbutan-1-ol] + CC(C)=O
Conditions | refractive index, [4] | relative permittivity, [5]
x2 = 0 | 1.4048 ± 0.0011 | 14.96 ± 0.04
x2 = 0.1 | 1.4016 ± 0.0011 | 14.72 ± 0.04
x2 = 0.2 | 1.3981 ± 0.0011 | 14.62 ± 0.04
x2 = 0.3 | 1.3936 ± 0.0011 | 14.71 ± 0.04
x2 = 0.4 | 1.3893 ± 0.0011 | 14.96 ± 0.04
x2 = 0.5 | 1.3854 ± 0.0011 | 15.44 ± 0.04
x2 = 0.6 | 1.3799 ± 0.0011 | 16.08 ± 0.04
x2 = 0.7 | 1.3751 ± 0.001 | 16.95 ± 0.04
x2 = 0.8 | 1.3701 ± 0.001 | 17.99 ± 0.05
x2 = 0.9 | 1.3634 ± 0.0011 | 19.21 ± 0.05

CC(C)CCO [3-methylbutan-1-ol] + CCC(C)=O
Conditions | refractive index, [4] | relative permittivity, [5]
x2 = 0 | 1.4048 ± 0.0011 | 14.96 ± 0.04
x2 = 0.099 | 1.4024 ± 0.0011 | 14.59 ± 0.04
x2 = 0.2 | 1.4001 ± 0.0011 | 14.38 ± 0.04
x2 = 0.3 | 1.3972 ± 0.0011 | 14.33 ± 0.04
x2 = 0.4 | 1.3948 ± 0.0011 | 14.44 ± 0.04
x2 = 0.499 | 1.392 ± 0.0011 | 14.69 ± 0.04
x2 = 0.599 | 1.3891 ± 0.0011 | 15.12 ± 0.04
x2 = 0.7 | 1.3863 ± 0.0011 | 15.7 ± 0.04
x2 = 0.8 | 1.3829 ± 0.001 | 16.43 ± 0.04
x2 = 0.9 | 1.38 ± 0.001 | 17.33 ± 0.04

CC(C)CCO [3-methylbutan-1-ol] + C[S+](C)[O-]
Conditions | refractive index, [4] | relative permittivity, [5]
x2 = 0 | 1.4048 ± 0.0011 | 14.96 ± 0.04
x2 = 0.1 | 1.4071 ± 0.0011 | 15.92 ± 0.05
x2 = 0.2 | 1.4118 ± 0.0011 | 17.56 ± 0.06
x2 = 0.3 | 1.4168 ± 0.0011 | 19.79 ± 0.06
x2 = 0.4 | 1.4227 ± 0.0011 | 22.45 ± 0.07
x2 = 0.5 | 1.4305 ± 0.0011 | 25.51 ± 0.08
x2 = 0.6 | 1.4385 ± 0.0011 | 28.95 ± 0.08
x2 = 0.7 | 1.4459 ± 0.0011 | 32.76 ± 0.09
x2 = 0.8 | 1.4549 ± 0.0011 | 37.01 ± 0.1
x2 = 0.9 | 1.4651 ± 0.0011 | 41.68 ± 0.11

CC(C)=O [acetone]
Conditions | mass density [kg/m3] | refractive index | relative permittivity
[1] | 784.42 ± 3.1 | – | –
[2] | – | 1.3564 ± 0.001 | –
[3] | – | – | 20.69 ± 0.04

CC(C)=O [acetone] + CC(C)CCO
x1 = 1
Conditions | refractive index | relative permittivity
[4] | 1.3564 ± 0.001 | –
[5] | – | 20.69 ± 0.04

CC(C)=O [acetone] + CCCCCO
x1 = 1
Conditions | refractive index | relative permittivity
[4] | 1.3564 ± 0.001 | –
[5] | – | 20.69 ± 0.04

CC(=O)c1ccccc1 [acetophenone]
Conditions | mass density [kg/m3] | refractive index | relative permittivity
[1] | 1022.77 ± 4.2 | – | –
[2] | – | 1.5318 ± 0.0011 | –
[3] | – | – | 17.51 ± 0.04

CC(=O)c1ccccc1 [acetophenone] + CC(C)CCO
Conditions | refractive index, [4] | relative permittivity, [5]
x1 = 0.101 | 1.418 ± 0.0011 | 14.65 ± 0.04
x1 = 0.199 | 1.4303 ± 0.0011 | 14.47 ± 0.04
x1 = 0.301 | 1.4451 ± 0.0011 | 14.39 ± 0.04
x1 = 0.4 | 1.4573 ± 0.0011 | 14.45 ± 0.04
x1 = 0.5 | 1.4709 ± 0.0011 | 14.66 ± 0.04
x1 = 0.6 | 1.4817 ± 0.0011 | 14.97 ± 0.04
x1 = 0.699 | 1.4935 ± 0.0011 | 15.44 ± 0.04
x1 = 0.8 | 1.5063 ± 0.0011 | 16.03 ± 0.04
x1 = 0.9 | 1.5187 ± 0.0011 | 16.71 ± 0.04
x1 = 1 | 1.5318 ± 0.0011 | 17.51 ± 0.04

CC(=O)c1ccccc1 [acetophenone] + CCCCCO
Conditions | refractive index, [4] | relative permittivity, [5]
x1 = 0.1 | 1.4212 ± 0.0011 | 14.86 ± 0.04
x1 = 0.2 | 1.4346 ± 0.0011 | 14.71 ± 0.04
x1 = 0.3 | 1.4468 ± 0.0011 | 14.66 ± 0.04
x1 = 0.4 | 1.4598 ± 0.0011 | 14.75 ± 0.04
x1 = 0.501 | 1.4726 ± 0.0011 | 14.94 ± 0.04
x1 = 0.6 | 1.4859 ± 0.0011 | 15.25 ± 0.04
x1 = 0.7 | 1.4968 ± 0.0011 | 15.65 ± 0.04
x1 = 0.8 | 1.5092 ± 0.0011 | 16.19 ± 0.04
x1 = 0.9 | 1.5213 ± 0.0011 | 16.83 ± 0.04
x1 = 1 | 1.5318 ± 0.0011 | 17.51 ± 0.04

CCC(C)=O [butanone]
Conditions | mass density [kg/m3] | refractive index | relative permittivity
[1] | 799.75 ± 3.2 | – | –
[2] | – | 1.376 ± 0.001 | –
[3] | – | – | 18.38 ± 0.04

CCC(C)=O [butanone] + CC(C)CCO
x1 = 1
Conditions | refractive index | relative permittivity
[4] | 1.376 ± 0.001 | –
[5] | – | 18.38 ± 0.04

CCC(C)=O [butanone] + CCCCCO
Conditions | refractive index, [4] | relative permittivity, [5]
x1 = 0.1 | 1.4053 ± 0.0011 | 14.81 ± 0.04
x1 = 0.2 | 1.4023 ± 0.0011 | 14.68 ± 0.04
x1 = 0.3 | 1.3988 ± 0.0011 | 14.63 ± 0.04
x1 = 0.4 | 1.3959 ± 0.0011 | 14.73 ± 0.04
x1 = 0.5 | 1.393 ± 0.0011 | 14.96 ± 0.04
x1 = 0.599 | 1.3898 ± 0.0011 | 15.35 ± 0.04
x1 = 0.7 | 1.3859 ± 0.0011 | 15.9 ± 0.04
x1 = 0.8 | 1.3826 ± 0.001 | 16.56 ± 0.04
x1 = 0.9 | 1.3796 ± 0.001 | 17.44 ± 0.04
x1 = 1 | 1.376 ± 0.001 | 18.38 ± 0.04

C1CCCCC1 [cyclohexane]
Conditions | mass density [kg/m3] | refractive index | relative permittivity
[1] | 773.58 ± 3.1 | – | –
[2] | – | 1.4234 ± 0.001 | –
[3] | – | – | 2.02 ± 0.04

C[S+](C)[O-] [dimethyl sulfoxide]
Conditions | mass density [kg/m3] | refractive index | relative permittivity
[1] | 1096.07 ± 4.4 | – | –
[2] | – | 1.4767 ± 0.0011 | –
[3] | – | – | 46.71 ± 0.04

C[S+](C)[O-] [dimethyl sulfoxide] + CC(C)CCO
x1 = 1
Conditions | refractive index | relative permittivity
[4] | 1.4768 ± 0.0011 | –
[5] | – | 46.71 ± 0.04

C[S+](C)[O-] [dimethyl sulfoxide] + CCCCCO
x1 = 1
Conditions | refractive index | relative permittivity
[4] | 1.4767 ± 0.0011 | –
[5] | – | 46.71 ± 0.04

CCCCCO [pentan-1-ol]
Conditions | mass density [kg/m3] | refractive index | relative permittivity
[1] | 811.1 ± 3.2 | – | –
[2] | – | 1.4082 ± 0.0011 | –
[3] | – | – | 15.12 ± 0.04

CCCCCO [pentan-1-ol] + CC(=O)c1ccccc1
x2 = 0
Conditions | refractive index | relative permittivity
[4] | 1.4082 ± 0.0011 | –
[5] | – | 15.12 ± 0.04

CCCCCO [pentan-1-ol] + CC(C)=O
Conditions | refractive index, [4] | relative permittivity, [5]
x2 = 0 | 1.4082 ± 0.0011 | 15.12 ± 0.04
x2 = 0.1 | 1.4049 ± 0.0011 | 14.94 ± 0.04
x2 = 0.2 | 1.4015 ± 0.0011 | 14.91 ± 0.04
x2 = 0.301 | 1.397 ± 0.0011 | 15.01 ± 0.04
x2 = 0.399 | 1.3926 ± 0.0011 | 15.28 ± 0.04
x2 = 0.5 | 1.3882 ± 0.0011 | 15.73 ± 0.04
x2 = 0.601 | 1.3828 ± 0.0011 | 16.35 ± 0.04
x2 = 0.701 | 1.3771 ± 0.0011 | 17.21 ± 0.04
x2 = 0.8 | 1.3706 ± 0.0011 | 18.21 ± 0.05
x2 = 0.9 | 1.3639 ± 0.0011 | 19.36 ± 0.05

CCCCCO [pentan-1-ol] + CCC(C)=O
x2 = 0
Conditions | refractive index | relative permittivity
[4] | 1.4082 ± 0.0011 | –
[5] | – | 15.12 ± 0.04

CCCCCO [pentan-1-ol] + C[S+](C)[O-]
Conditions | refractive index, [4] | relative permittivity, [5]
x2 = 0 | 1.4082 ± 0.0011 | 15.12 ± 0.04
x2 = 0.099 | 1.4109 ± 0.0011 | 16.27 ± 0.05
x2 = 0.201 | 1.4164 ± 0.0011 | 18.04 ± 0.06
x2 = 0.3 | 1.4217 ± 0.0011 | 20.24 ± 0.06
x2 = 0.4 | 1.427 ± 0.0011 | 22.93 ± 0.07
x2 = 0.5 | 1.4339 ± 0.0011 | 25.94 ± 0.08
x2 = 0.6 | 1.44 ± 0.0011 | 29.38 ± 0.08
x2 = 0.7 | 1.4488 ± 0.0011 | 33.14 ± 0.09
x2 = 0.8 | 1.4573 ± 0.0011 | 37.33 ± 0.1
x2 = 0.9 | 1.4675 ± 0.0011 | 41.95 ± 0.1

From the NIST ThermoML archive (doi:10.1016/j.jct.2017.06.020)
